Series [1] deals with chick embryonic spinal motorneurons. Nature of the series: Survival of chick embryonic spinal motorneurons in culture. As to conditions: for highest survival effect of the concentration-response curve: CNTF = recombinant rat; for Motoneuron survival (%) / Survival: after 3 days in culture; for Motoneuron survival (%): mean ± SEM (n = 4), IGF-I 1 μg/ml, Basic FGF 30 ng/ml, CNTF 1.5 ng/ml; for Survival: one concentration per molecule, Table VI, CNTF rat, rec.; for survival effect on motoneurons: supramaximal concentrations, NT-3 produced by transfected Cos-cells. The format is cell-based. Also noted: key to Survival: −: not significantly different from control (survival: 8.3 ± 3.8%, mean ± SD, n = 18); ±: about 15-20% (statistically significant from each blank control, p < 0.01); + +: about 35-55%; + ++: about 55-75%. How it is done:
Motorneuron columns were dissected under a stereomicroscope from the lumbar part of the spinal cord of chick embryos on the 6th day of embryonic development and stored in cold calcium and magnesium-free Hanks balanced salt solution supplemented with glucose (4 g/l) (HBSS). The tissues were washed with HBSS and treated with 0.03% trypsin in HBSS at 37° C. for 20 min with gentle shaking, rinsed with cold HBSS and triturated mildly in 3 steps of 8-passage agitation in 1 ml of cold 0.1% soybean trypsin inhibitor (Sigma) in HBSS through a fire-polished siliconized Pasteur pipette. Each supernatant cell suspension was filtered through 50 μm-Nylon mesh, pooled and layered onto 4 ml of cold 6.8% metrizamide (Fluka) in HBSS-25 mM HEPES (pH7.4) in a 12 ml-siliconized conical glass tube. The tube was centrifuged at 400 g for 15 min at 4° C. and the intermediate layer (0.5 ml) was collected into another siliconized tube containing 6.5 ml of cold culture medium (a mixture of glucose (4 g/l)-supplemented Leibovitz's L-15 medium (Gibco), 0.15 M sodium bicarbonate, heat-inactivated and filtered horse serum and penicillin G (10^5 units/ml) at the ratio of 75:15:10:0.1, freshly prepared and buffered with 5% CO2.) After centrifugation at 100×g for 7 min at 4° C., the supernatant was removed and the cells were gently resuspended in culture medium and plated in Greiner 4-well culture dishes (well diameter, 10 mm; C. A. Greiner und Sohne GmbH, Nurtingen, West Germany) at 1000-2000 cells/well. The dishes had been precoated with poly-DL-ornithine (Sigma, 0.5 mg in 0.15 M sodium borate buffer (pH 8.3) overnight at 4° C., rinsed twice with phosphate-buffered saline (PBS) and subsequently coated with laminin (Gibco; 10 μg/ml in the serum-depleted culture medium) and placed in a 5% CO2-incubator until cell plating (5-6 hrs). Cells were incubated at 37° C. in a humidified 5% CO2- and 95% air-incubator. Samples were added one hr after plating and the culture medium changed after 24 hrs and 72 hrs. The initial cell numbers were counted 3 hrs after plating.
In some experiments motor neurons were retrogradely labeled with a fluorescent dye in vivo before cell preparation (U. Dohrman et al., 1986, Dev. Biol. 118:209-221) to identify the motor neuron cell population. A small hole was made in the shell of eggs which had been incubated for 5 days. Small pieces of rhodamine isothiocyanate crystals (Sigma) were inserted at two or three places into each hind limb thigh and the egg hole was sealed with a cellophane tape. The eggs were incubated for another 24 hrs. Some of the operated embryos were then processed for frozen sections after formaldehyde fixation. […] The other embryos were used for cell preparation using the method described above (18.1.1). After 5 hrs in culture cells were rinsed with warm HBSS, fixed with 4% formaldehyde in PBS at room temperature for 20 min, rinsed with PBS and then mounted in glycerol-PBS (1:1) with glass coverslips. Of the total cells approximately 83% were labeled and identified as motorneurons (FIG. 42.) Most of these labeled motorneurons were large cells and the rest were intermediate-size cells. No small cells were labeled. On the other hand, in experiments in which cells were not labeled with a fluorescent dye about 70% of the total cells were large phase-bright cells with round cell somas, about 20% were intermediate-size neurons (most of them may be motorneurons) and about 10% were small immature neurons (they have neuron-like processes with growth cones but have phase-dark semi-flat cell somas). Non-neuronal cells were either not present or accounted for less than 2%. Taken together, one may conclude that at least 83% of the cells are motorneurons while the remainder consists of non-labeled motorneurons, a small number of unidentified intermediate-size neurons and about 10% immature small neurons. […]

Another series concerns hippocampal neurons. The series is described as follows: Glutamate-induced toxicity in hippocampal cultures (MTT assay). The format is cell-based, rat. As to conditions: glutamate 1 mM for 15 minutes, MTT after 20 h. How it is done: FIG. 38. Protective effect of CNTF on glutamate-induced toxicity in hippocampal cultures. […] Glutamate at various concentations (100-1000 uM) was added for 15 minutes, after which the cells were cultured in the absence of glutamate or CNTF for 20 h. Survival of cells at the end of the culture period was assessed by MTT assay based on the conversion of MTT (3-(4,5-dimethylthiazol-2-yl)-2,5-diphenyl tetrazolium bromide) to a purple product by vital cells. MTT dye was added to a final concentration of 0.5 mg/ml. Dyes taken up by live cells were solubilized by the addition of 0.08N HCI in isopropranol 5 hours later, and O.D. (570-650 nm) was measured.
The effect of CNTF on GABAergic neurons was dependent on the density at which the cells were plated. […] This may be due to an elevated level of neurotrophic factors in high density cultures. […] We have assessed the neurotoxic effects of various concentrations of glutamate (10-1000 μM) by means of a calorimetric MTT assay, as shown in FIG. 38. At a concentration of 1 mM, glutamate reduced cell survival to approximately 10%. In the presence of CNTF ([…]), cell survival following exposure to glutamate was enhanced.

Series [2] has as its system E8 chick ciliary ganglion neurons. Nature of the series: Survival of dissociated E8 chick ciliary ganglion neurons. The format is cell-based. As to conditions: cultured two days with a range of peptide concentrations. From the text: Ciliary neurotrophic factor activity may be evaluated using any CNTF-sensitive in vivo or in vitro system known in the art. For example, and not by way of limitation, in vitro systems have been developed which measure CNTF activity by quantitating 24-hour survival of embryonic (E8) chick ciliary ganglion (CG) neurons in monolayer cultures.
For example, ciliary ganglia may be collected from E8 chick embryos, dissociated (yielding approximately 20,000 cells per ganglion) and then diluted in HEBM medium containing 20 percent horse serum as described in Varon et al. (1979, Brain Res. 173:29-45). […] Culture plates may then be maintained at 37° C. in 5% CO2 for 24 hours, after which the cultures may be fixed by the addition of 200 μl 2 per cent glutaraldehyde in HEBM medium, and the number of surviving neurons may be determined visually by direct count under phase contrast microscopy. […]
Biological activity of recombinant CNTF was assayed on explants of chick embryo dorsal root ganglia (DRG) and dissociated cultures of ciliary ganglion (CG) neurons as described in Lindsay and Rohrer (1985, Devel. Biol 112:30-48). […] In explant cultures CNTF activity was determined by assessing the extent of fiber outgrowth in treated cultures compared to controls. Fiber outgrowth was scored on a scale of 0 to 5+, by comparing cultures to photographs of a dose-response of explanted DRG and NGF. […]

As usually defined, the EC50 is the concentration giving half of the maximal effect.

In the case of “Basic FGF: basic fibroblast growth factor (human, rec.)”, in series [1] (3 days in culture), the “concentration at which the highest survival effect was obtained” value turned out to be 30 ng/mL and the “highest survival effect of the concentration-response curve” value came to 51%. Moreover, in series [1], the “Motoneuron survival (%)” value stood at 51.9 ± 3.6% and the Survival result was “+ + (about 35-55%)”. In addition, the EC50 in series [1] (motorneuron survival, 3 days in culture) worked out at 0.26 ng/mL.

As for `N[C@@H](CCC(=O)O)C(=O)O` [glutamate, reference compound], in the series on hippocampal neurons, the “cell survival after glutamate” value is given as “approximately 10%”.

Regarding PDGF, in series [1], the Survival result is listed as “−” and the “survival effect on motoneurons” value is “no discernable effect”.

For the compound Acidic FGF: acidic FGF (human, rec.), in series [1] (3 days in culture), the “concentration at which the highest survival effect was obtained” value worked out at 300 ng/mL; the “concentration at which the highest survival effect was obtained, in the presence of 1 μg/ml heparin” value is 100 ng/mL; the “highest survival effect of the concentration-response curve” value came to 18%. The “highest survival effect of the concentration-response curve, in the presence of 1 μg/ml heparin” value in series [1] (3 days in culture, heparin only first 24 hr) stood at 35%. In addition, the Survival entry in series [1] was “± (about 15-20% (statistically significant from each blank control, p < 0.01))”.

On to IL-1β: IL-1β (human, rec.), for which, in series [1], the Survival result is reported as “−” and the “survival effect on motoneurons” value is on record as “no discernable effect”.

With “IGF-II: insulin-like growth factor II (human, rec.)”, in series [1] (3 days in culture), the “concentration at which the highest survival effect was obtained” value is 300 ng/mL and the “highest survival effect of the concentration-response curve” value is listed as 15%. Also, the Survival entry in series [1] is “± (about 15-20% (statistically significant from each blank control, p < 0.01))”.

Turning to Transferrin: Transferrin (human), the Survival entry in series [1] is recorded as “−”.

For the compound “MVLLEQKIPENEADGMPATVGDGGLFEK (MVLLEQKIPENEADGMPATVGDGGLFEK) [28 amino acid synthetic peptide fragment]”, in series [2], the “neurotrophic activity (neuronal survival)” value was “A dose-response relationship was observed”.

For Insulin: Insulin (bovine), in series [1] (3 days in culture), the “concentration at which the highest survival effect was obtained” value was determined as 25000 ng/mL and the “highest survival effect of the concentration-response curve” value came out at 16%. In addition, the Survival entry in series [1] is reported as “± (about 15-20% (statistically significant from each blank control, p < 0.01))”.

Regarding TGFa: TGFa (human, rec.), in series [1], the Survival entry was “−” and the “survival effect on motoneurons” value was “no discernable effect”.

For the compound “IGF-I: insulin-like growth factor I (human, rec.)”, in series [1] (3 days in culture), the “concentration at which the highest survival effect was obtained” value came out at 100 ng/mL and the “highest survival effect of the concentration-response curve” value amounted to 15%. Moreover, in series [1], the “Motoneuron survival (%)” value is reported as 14.5 ± 0.5 % and the Survival result is “± (about 15-20% (statistically significant from each blank control, p < 0.01))”.

Consider TGFβ1: TGFβ1 (porcine, rec.), for which, in series [1], the Survival result is given as “−” and the “survival effect on motoneurons” value is reported as “no discernable effect”.

The values are drawn from patent publication US6602687B1, “DNA encoding human ciliary neurotrophic factor and method for producing the protein encoded thereby” (Regeneron Pharmaceuticals, Inc., priority 1989, dated 2003).
